{"source": "patent EP0086647A2", "about": "“Pyrimidone compounds, their preparation, and pharmaceutical compositions containing them” (YAMANOUCHI PHARMACEUTICAL CO. LTD., priority 1982, dated 1983)", "key": {"gastric acid secretion": {"tested_on": "gastric acid secretion", "test": "Acid inhibition, Shay (4hr.) / (Dog), results table", "assay_type": "in vivo"}, "[1]": {"test": "Cytoprotective action (animal experiment methods, not described)", "assay_type": "in vivo", "parameters": "key: *: These compounds also have cytoprotective action"}}, "note": "Structures can show the parent of a compound that is named as a salt.", "data": [{"smiles": "CCCCc1c(C)[nH]c(CCSCc2csc(N=C(N)N)n2)nc1=O", "note": "[Example 30, 2-[2-[[[2-[(diaminomethylene)amino]-4-thiazolyl]methyl]thio]-ethyl]-5-n-butyl-6-methy-1-4(1H)-pyrimidone di-hydrochloride]", "values": [{"measurement": "Acid Inhibition Shay(4hr.) (mg./kg.) (Dog)", "setting": "gastric acid secretion; dose 0.1mg (mg./kg.)", "result": "70%(0.1mg)"}, {"measurement": "cytoprotective action", "setting": "[1]", "result": "R=butyl*"}]}, {"smiles": "CCCCCc1c(C)[nH]c(CCSCc2csc(N=C(N)N)n2)nc1=O.Cl.Cl", "note": "[Example 31, 2-[2-[[[2-[(diaminomethylene)amino]-4-thiazolyl]methyl]thio]-ethyl]-6-methyl-5-n-pentyl-4(1H)-pyrimidone di-hydrochloride]", "values": [{"measurement": "Acid Inhibition Shay(4hr.) (mg./kg.) (Dog)", "setting": "gastric acid secretion; dose 0.1mg (mg./kg.)", "result": "95%(0.1mg)"}, {"measurement": "cytoprotective action", "setting": "[1]", "result": "R=amyl*"}]}, {"smiles": "CCN(CC)CCCc1c(C)[nH]c(CCSCc2csc(N=C(N)N)n2)nc1=O", "note": "[Example 17, 2-(2-[[[2-((diaminomethylene)amino)-4-t:hiazolyl]methyl]-thio]ethyl]-5-(3-diethylaminopropyl)-6-methyl-4(1H)-pyrimidone tri-hydrochloride]", "values": [{"measurement": "Acid Inhibition Shay(4hr.) (mg./kg.) (Dog)", "setting": "gastric acid secretion; dose 3mg (mg./kg.)", "result": "83%(3mg)"}]}, {"smiles": "CCCc1c(C)[nH]c(CCSCc2csc(N=C(N)N)n2)nc1=O", "note": "[Example 28]", "values": [{"measurement": "Acid Inhibition Shay(4hr.) (mg./kg.) (Dog)", "setting": "gastric acid secretion; dose 0.1mg (mg./kg.)", "result": "60%(0.1mg)"}]}, {"smiles": "Cc1[nH]c(CCSCc2csc(N=C(N)N)n2)nc(=O)c1CCC(C)C", "note": "[Example 32, 2-[2-[[[2-[(diaminomethylene)amino]-4-thiazolyl]methyl]thio]-ethyl)-6-methyl-5-(3-methylbutyl)-4(lH)-pyrimidone di-hydrochloride]", "values": [{"measurement": "cytoprotective action", "setting": "[1]", "result": "R=iso-amyl*"}]}, {"smiles": "CCc1c(C)[nH]c(CCSCc2csc(N=C(N)N)n2)nc1=O", "note": "[Example 27, 2-[2-[[[2-[(diaminomethylene)amino)-4-thiazolyl]methyl]thio]-ethyl]-5-ethyl-6-methyl-4(1H)-pyrimidone]", "values": [{"measurement": "Acid Inhibition Shay(4hr.) (mg./kg.) (Dog)", "setting": "gastric acid secretion; dose 0.1mg (mg./kg.)", "result": "90%(0.1mg)"}]}, {"smiles": "C#CCc1c(C)[nH]c(CCSCc2csc(N=C(N)N)n2)nc1=O", "note": "[Example 29, 2-[2-[[[2-[(diaminomethylene)amino]-4-thiazolyl]methyl]thio]-ethyl]-6-methyl-5-(2-propinyl)-4(1H)-pyrimidone]", "values": [{"measurement": "Acid Inhibition Shay(4hr.) (mg./kg.) (Dog)", "setting": "gastric acid secretion; dose 0.1mg (mg./kg.)", "result": "95%(0.1mg)"}]}]}
